Series [1] deals with Mus musculus. The series can be described thus: Toxicity in Mus musculus albino (mouse) assessed as GPx activity per gram of Hb at 300 mg/kg, po for 10 days (Rvb =179.16 +/- 10.45 U/g Hb). Format: organism-based. Also noted: dose 300 mg/kg, route oral. As to conditions: in vivo, 240 h.
Series [2] deals with Mus musculus. Nature of the series: Toxicity in Mus musculus albino (mouse) assessed as GSH activity at 300 mg/kg, po for 10 days (reference value: 59.57 +/- 5.10 %). Format: organism-based. Also noted: dose 300 mg/kg, route oral. The conditions noted are these: in vivo, 240 h.
For series [3], the system named is Mus musculus. Nature of the series: Toxicity in Mus musculus albino (mouse) assessed as increase in heart rate at 90 to 340 mg/kg, ip. Further details: dose 90-340 mg/kg, route intraperitoneal. Type of series: organism-based. As to conditions: in vivo.
Series [4] deals with Mus musculus. The series can be described thus: Toxicity in Mus musculus albino (mouse) assessed as serum gamma-glutamyl transferase level at 300 mg/kg, po for 10 days (reference value: 4.43 +/- 0.31 U/l). As to conditions: in vivo, 240 h. Further details: dose 300 mg/kg, route oral. Format: organism-based.
Series [5] has as its system Mus musculus. Nature of the series: Toxicity in Mus musculus albino (mouse) assessed as serum SGPT level at 300 mg/kg, po for 10 days (reference value: 35.82 +/- 5.26 U/l). Format: organism-based. Further details: dose 300 mg/kg, route oral. As to conditions: in vivo, 240 h.
The subject of series [6] is Mus musculus. The series can be described thus: Toxicity in Mus musculus albino (mouse) assessed as drop in temperature at extremeties at 90 to 340 mg/kg, ip. Type of series: organism-based. Also noted: dose 90-340 mg/kg, route intraperitoneal. As to conditions: in vivo.
Series [7] deals with Mus musculus. Nature of the series: Toxicity in Mus musculus albino (mouse) assessed as serum SGOT level at 300 mg/kg, po for 10 days (reference value: 9.74 +/- 1.73 U/l). Type of series: organism-based. Further details: dose 300 mg/kg, route oral. The conditions noted are these: in vivo, 240 h.
For series [8], the system named is Mus musculus. Nature of the series: Anti-inflammatory activity in Mus musculus albino (mouse) assessed as inhibition of formalin-induced paw swelling at 30 mg/kg, po administered 30 min prior formalin challenge measured after 90 min post challenge (reference value: 9.5 +/- 0.04 mm/min). Type of series: functional.
Series [9] deals with Mus musculus. Nature of the series: Toxicity in Mus musculus albino (mouse) assessed as brownish eye mucus at 90 to 340 mg/kg, ip. Type of series: organism-based. Also noted: dose 90-340 mg/kg, route intraperitoneal. The conditions noted are these: in vivo.
Series [10] deals with Mus musculus. Nature of the series: Toxicity in Mus musculus albino (mouse) assessed as bluish skin at 90 to 340 mg/kg, ip. Format: organism-based. Further details: dose 90-340 mg/kg, route intraperitoneal. The conditions noted are these: in vivo.
Series [11] concerns Mus musculus. The series can be described thus: Toxicity in ip dosed Mus musculus albino (mouse) assessed as mortality measured per gram body weight. As to conditions: in vivo. Type of series: organism-based.
In series [12] the test system is Mus musculus. The series can be described thus: Toxicity in Mus musculus albino (mouse) assessed as tremor inhind limbs at 90 to 340 mg/kg, ip. Type of series: organism-based, Limb. Also noted: dose 90-340 mg/kg, route intraperitoneal. As to conditions: in vivo.
Series [13] has as its system Mus musculus. Nature of the series: Anti-inflammatory activity in Mus musculus albino (mouse) assessed as inhibition of formalin-induced paw swelling at 30 mg/kg, po administered 30 min prior formalin challenge measured after 120 min post challenge (reference value: 9.83 +/- 0.071 mm/min). Format: functional.
The subject of series [14] is Mus musculus. The series can be described thus: Anti-inflammatory activity in Mus musculus albino (mouse) assessed as inhibition of formalin-induced paw swelling at 30 mg/kg, po administered 30 min prior formalin challenge measured after 30 min post challenge (reference value: 9.46 +/- 0.035 mm/min). Type of series: functional.
In series [15] the test system is Mus musculus. The series can be described thus: Toxicity in Mus musculus albino (mouse) assessed as bluish toe at 90 to 340 mg/kg, ip. Format: organism-based. Also noted: dose 90-340 mg/kg, route intraperitoneal. As to conditions: in vivo.
The test system of series [16] is Mus musculus. The series can be described thus: Toxicity in Mus musculus albino (mouse) assessed as serum TBARS level at 300 mg/kg, po for 10 days (reference value: 4.35 +/- 0.86 U/l). Type of series: organism-based. Also noted: dose 300 mg/kg, route oral. As to conditions: in vivo, 240 h.
In series [17] the test system is Mus musculus. The series can be described thus: Anti-inflammatory activity in Mus musculus albino (mouse) assessed as inhibition of formalin-induced paw swelling at 30 mg/kg, po administered 30 min prior formalin challenge measured after 60 min post challenge (reference value: 9.73 +/- 0.06 mm/min). Format: functional.
Series [18] concerns Mus musculus. Nature of the series: Toxicity in Mus musculus albino (mouse) assessed as rapid respiration at 90 to 340 mg/kg, ip. Type of series: organism-based. Also noted: dose 90-340 mg/kg, route intraperitoneal. The conditions noted are these: in vivo.
Series [19] relates to Mus musculus. Nature of the series: Toxicity in Mus musculus albino (mouse) assessed as SOD activity per gram of Hb at 300 mg/kg, po for 10 days (reference value: 12.7+/- 2.08 U/g Hb). Type of series: organism-based. Further details: dose 300 mg/kg, route oral. As to conditions: in vivo, 240 h.
Series [20] relates to Mus musculus. The series can be described thus: Toxicity in Mus musculus albino (mouse) assessed as serum LDH level at 300 mg/kg, po for 10 days (reference value: 217.84 +/- 13.36 U/l). Format: organism-based. Also noted: dose 300 mg/kg, route oral. The conditions noted are these: in vivo, 240 h.
The test system of series [21] is Mus musculus. Nature of the series: Toxicity in Mus musculus albino (mouse) assessed as general depression at 90 to 340 mg/kg, ip. Further details: dose 90-340 mg/kg, route intraperitoneal. Format: organism-based. As to conditions: in vivo.
Series [22] relates to Mus musculus. Nature of the series: Toxicity in Mus musculus albino (mouse) assessed as serum ALP level at 300 mg/kg, po for 10 days (reference value: 31.63 +/- 3.73 U/l). Format: organism-based. Also noted: dose 300 mg/kg, route oral. The conditions noted are these: in vivo, 240 h.
In series [23] the test system is Mus musculus. Nature of the series: Toxicity in Mus musculus albino (mouse) assessed as rapid respiration at 70 to 410 mg/kg, ip. As to conditions: in vivo. Type of series: organism-based. Further details: dose 70-410 mg/kg, route intraperitoneal.
Series [24] concerns Mus musculus. The series can be described thus: Toxicity in Mus musculus albino (mouse) assessed as brownish eye mucus at 70 to 410 mg/kg, ip. Format: organism-based. Also noted: dose 70-410 mg/kg, route intraperitoneal. As to conditions: in vivo.
Series [25] has as its system Mus musculus. The series can be described thus: Toxicity in Mus musculus albino (mouse) assessed as tremor inhind limbs at 70 to 410 mg/kg, ip. Type of series: organism-based, Limb. Further details: dose 70-410 mg/kg, route intraperitoneal. The conditions noted are these: in vivo.
The test system of series [26] is Mus musculus. Nature of the series: Toxicity in Mus musculus albino (mouse) assessed as bluish toe at 70 to 410 mg/kg, ip. Format: organism-based. Also noted: dose 70-410 mg/kg, route intraperitoneal. As to conditions: in vivo.
The subject of series [27] is Mus musculus. The series can be described thus: Toxicity in Mus musculus albino (mouse) assessed as general depression at 70 to 410 mg/kg, ip. Type of series: organism-based. Also noted: dose 70-410 mg/kg, route intraperitoneal. As to conditions: in vivo.
Series [28] relates to Mus musculus. The series can be described thus: Toxicity in Mus musculus albino (mouse) assessed as increase in heart rate at 70 to 410 mg/kg, ip. Type of series: organism-based. Further details: dose 70-410 mg/kg, route intraperitoneal. As to conditions: in vivo.
The test system of series [29] is Mus musculus. The series can be described thus: Toxicity in Mus musculus albino (mouse) assessed as drop in temperature at extremeties at 80 to 375 mg/kg, ip. As to conditions: in vivo. Type of series: organism-based. Also noted: dose 80-375 mg/kg, route intraperitoneal.
In series [30] the test system is Mus musculus. The series can be described thus: Toxicity in Mus musculus albino (mouse) assessed as bluish skin at 70 to 410 mg/kg, ip. Format: organism-based. Also noted: dose 70-410 mg/kg, route intraperitoneal. The conditions noted are these: in vivo.
Series [31] has as its system Mus musculus. Nature of the series: Toxicity in Mus musculus albino (mouse) assessed as drop in temperature at extremeties at 70 to 410 mg/kg, ip. The conditions noted are these: in vivo. Type of series: organism-based. Further details: dose 70-410 mg/kg, route intraperitoneal.

For 2 compounds, Activity results are on record in ChEMBL document CHEMBL3045512, “Synthesis of some novel triazoloquinazolines and triazinoquinazolines and their evaluation for anti-inflammatory activity” (Med Chem Res, 2012).

With `CCOC(=O)c1nn2c(=O)c3ccccc3nc2n1-c1ccc(S(=O)(=O)NC(C)=O)cc1`, the Activity with Mus musculus [1] is 177 U/g Hb; in the series on Mus musculus [2], 58.63%; with Mus musculus [3], “Toxic”; in the series with Mus musculus [4] it was 4.51 U/L; in the series with Mus musculus [5], 31.24 U/L; in the series with Mus musculus [6] it was “Toxic”. In addition, the Activity in the series on Mus musculus [7] was 10.66 U/L; in the series with Mus musculus [8], 6 millimeter/min; with Mus musculus [9], “Toxic”; with Mus musculus [10] it was “Toxic”; in the series on Mus musculus [11], 235 millimeter/min; with Mus musculus [12], “Toxic”. Also, the Activity was 5.95 millimeter/min in the series with Mus musculus [13]; 6.37 millimeter/min in the series on Mus musculus [14]; “Toxic” with Mus musculus [15]; 4.02 nmol/mL with Mus musculus [16]; 6.17 millimeter/min in the series on Mus musculus [17]; “Toxic” with Mus musculus [18]. In addition, the Activity in the series on Mus musculus [19] is 14 U/g Hb; in the series with Mus musculus [20], 215.78 U/L; in the series with Mus musculus [21], “Toxic”; with Mus musculus [22], 28.95 U/L.
Take `CC(=O)NS(=O)(=O)c1ccc(-n2c(-c3ccccc3O)nn3c(=O)c4ccccc4nc23)cc1`: the Activity in the series on Mus musculus [1] is 180 U/g Hb; in the series on Mus musculus [23], “Toxic”; in the series on Mus musculus [2] it was 60.12%; in the series on Mus musculus [24] it was “Toxic”; with Mus musculus [25], “Toxic”; in the series with Mus musculus [26], “Toxic”. The Activity in the series on Mus musculus [4] is on record as 4.36 U/L; in the series on Mus musculus [5], 28.44 U/L; in the series with Mus musculus [7] it was 11.1 U/L; in the series on Mus musculus [8], 6.83 millimeter/min; in the series on Mus musculus [11], 213.25 millimeter/min; in the series with Mus musculus [27], “Toxic”. For the same compound, the Activity is 6.02 millimeter/min with Mus musculus [13]; 6.43 millimeter/min in the series with Mus musculus [14]; “Toxic” with Mus musculus [28]; “Toxic” in the series on Mus musculus [29]; “Toxic” in the series on Mus musculus [30]; 4.11 nmol/mL in the series on Mus musculus [16]. The Activity is 6.11 millimeter/min with Mus musculus [17]; “Toxic” with Mus musculus [31]; 12.4 U/g Hb in the series on Mus musculus [19]; 211.27 U/L in the series with Mus musculus [20]; 33.26 U/L with Mus musculus [22].
